One assay concerns SW-48 (Colorectal). The experiment in a line: MTT cytotoxicity assay, SW-48. Type of assay: cell-based. The note with it: Homo sapiens, SW48, 72 hour incubation. On the procedure:
(§1) The in vitro cytotoxicity of compounds 16 and 22 were evaluated in a panel of cell lines using the standard MTT assay for a 72 hour incubation period (Table 2). Free payloads produced cytotoxicities in the nanomolar to picomolar range.
(§2) Tumor cell lines were maintained in RPMI1640 medium supplemented with 10% heat-inactivated fetal bovine serum, 2 mM L-glutamine and 1 mM sodium pyruvate. 1800 cells per well were seeded in a volume of 180 μl in a 96-well flat bottom polystyrene plate. The cells were allowed to adhere overnight at 37° C. in a CO2 incubator. Ligands were initially formulated in DMSO, and stocks stored at −80° C. They were then further formulated at lox concentration in RPMI1640 medium. 20 ul of diluted samples were added into each treatment well. On each plate, blank wells with no cells, and untreated wells containing cells, were included. […] Cytotoxicity was evaluated using a tetrazolium salt-based assay, the MTT assay. […] The plate was then read on a plate reader at 540 nm, and percentage cell survival calculated as follows: ((mean absorbance treated wells at concentration x−mean absorbance blank wells)÷(mean absorbance untreated wells at concentration x−mean absorbance blank wells))×100. Data were plotted as concentration in nM vs. % cell survival in Microsoft Excel, and IC50 values (concentration where cell survival is reduced by a half) were determined from the graph.
(In general: Tetrazolium assays rely on reduction of a dye to a coloured formazan, in cell work by metabolically active cells.)

The next assay deals with LIM1215 (Colorectal). The experiment in a line: MTT cytotoxicity assay, LIM1215. Type of assay: cell-based. The note with it: for IC50: LIM1215, MTT assay, 72 hour incubation, HIF1 negative cell-line. The method, then:
as §1
Tumor cell lines were maintained in RPMI1640 medium supplemented with 10% heat-inactivated fetal bovine serum, 2 mM L-glutamine and 1 mM sodium pyruvate. 1800 cells per well were seeded in a volume of 180 μl in a 96-well flat bottom polystyrene plate. The cells were allowed to adhere overnight at 37° C. in a CO2 incubator. Ligands were initially formulated in DMSO, and stocks stored at −80° C. They were then further formulated at lox concentration in RPMI1640 medium. 20 ul of diluted samples were added into each treatment well. On each plate, blank wells with no cells, and untreated wells containing cells, were included. Plates were then cultured at 37° C. in a CO2 incubator for 72 hrs. Cytotoxicity was evaluated using a tetrazolium salt-based assay, the MTT assay. After 72 hours, the supernatant was removed from each well and 200 μl of a sterile filtered 500 μg/ml MTT solution in water added to each well. The plates were then incubated at 37° C. in a CO2 incubator for 4 hrs. The supernatant was then removed and the formazan crystals formed solubilized by adding 150 μl of DMSO to each well. The plate was then read on a plate reader at 540 nm, and percentage cell survival calculated as follows: ((mean absorbance treated wells at concentration x−mean absorbance blank wells)÷(mean absorbance untreated wells at concentration x−mean absorbance blank wells))×100. Data were plotted as concentration in nM vs. % cell survival in Microsoft Excel, and IC50 values (concentration where cell survival is reduced by a half) were determined from the graph.

The next assay has as its system SW620 (Colorectal). The experiment in a line: MTT cytotoxicity assay, SW620. Type of assay: cell-based. The note with it: Homo sapiens, SW-620, 72 hour incubation. On the procedure: as §1, §2
Assay [1] has as its system U138-MG (Glioblastoma) HIF++. Put plainly: MTT cytotoxicity assay, U138-MG. The note with it: Homo sapiens, 72 hour incubation. It is filed as cell-based. On the procedure:
as §1, §2

The subject of a further assay is A431 (Skin) HIF+. The experiment in a line: MTT cytotoxicity assay, A431. Type of assay: cell-based. The note with it: Homo sapiens, A-431, 72 hour incubation. On the procedure: as §1, §2
In another assay the test system is MS1 DNA fragment. Put plainly: DNA footprinting (DNase I). It is filed as binding. The method, then:
The DNA sequence selectivity profile of 16 was investigated using a modification of the previously established DNA footprinting assay. Following an overnight incubation of the ligand-DNA complexes, the mixture was mixed with strand separation buffer containing 10 mM EDTA, 10 mM NaOH, 0.1% bromophenol blue, 80% formamide and incubated at 100° C. for 3 min. The mixture was then immediately cooled on ice and run on an 8% denaturing gel. […] This is in contrast to control molecules (FIG. 2), where indiscriminate binding to the DNA sequence can be observed.
Methods for the preparation of the “MS1” DNA fragment (FIG. 2) have been previously described^[19]. Briefly, the sequence which had been cloned into the BamHI site of pUC18 was obtained by cutting with HindIII and EcoRI. Radiolabelled DNA fragments were prepared by filling in the 3′-end of the HindIII site with [α-^32P]dATP using Klenow DNA polymerase (exo-).
The radiolabelled DNA fragment was separated from the remainder of the plasmid DNA on a 6% non-denaturing polyacrylamide gel. […]
Footprinting reactions were performed as previously described^[20] using the “MS1” DNA fragment, which represents a random DNA sequence. […] After gel purification, the radiolabelled DNA was dissolved in 10 mM Tris HCl pH 7.5 containing 0.1 mM EDTA, at a concentration of about 10 c.p.s per μL as determined on a hand held Geiger counter. […]

For another assay, the system named is transcription factors. Put plainly: Transcription factor plate array assay. It is filed as cell-based. The note with it: HeLa cells, 100 nM, 6 hours. On the procedure:
The transcription factor plate array assay kit was obtained from Signosis Inc (USA). Briefly, 2×10^6 HeLa cells were treated with 100 nM 16 and incubated for 6 hours before extracting the nuclear protein and carrying out the TF plate array assay. The assay was carried out following the manufacturer's protocol. In the case of each transcription factor, the RLU value obtained for the cells treated with 16 was deducted from the respective values obtained for the untreated cells to obtain the differences in TF activation/inhibition.

By IC50 is commonly meant the concentration at which inhibition is half-maximal. With `COc1cc2c(cc1OCCCC(=O)Nc1cc(C(=O)Nc3ccc(-c4cc(C(=O)Nc5ccccc5)n(C)c4)cc3)n(C)c1)N=C[C@@H]1CCCCN1C2=O` [Compound 22, (S)-4-(4-((2-Methoxy-12-oxo-6a,7,8,9,10,12-hexahydrobenzo[e]pyrido[1,2-a][1,4]diazepin-3-yl)oxy)butanamido)-1-methyl-N-(4-(1-methyl-5-(phenylcarbamoyl)-1H-pyrrol-3-yl)phenyl)-1H-pyrrole-2-carboxamide], the IC50 came to 0.093 nM with SW-48 (Colorectal); 0.899 nM in the assay on LIM1215 (Colorectal); 0.291 nM in the assay with SW620 (Colorectal); 1.62 nM in assay [1]; 0.055 nM with A431 (Skin) HIF+. Also, the “potency relative to 16” value with LIM1215 (Colorectal) (HIF1 negative cell-line LIM1215) is on record as “two-fold more potent than 16”.

For `COc1cc2c(cc1OCCCC(=O)Nc1cc(C(=O)Nc3ccc(-c4cc(C)c(C(=O)Nc5ccccc5)s4)nc3)n(C)c1)N=C[C@@H]1CCCCN1C2=O` [Compound 16, (S)-4-(4-((2-Methoxy-12-oxo-6a,7,8,9,10,12-hexahydrobenzo[e]pyrido[1,2-a] [1,4]diazepin-3-yl)oxy)butanamido)-1-methyl-N-(6-(4-methyl-5-(phenyl-carbamoyl)thiophen-2-yl)pyridin-3-yl)-1H-pyrrole-2-carboxamide], the IC50 in the assay with SW-48 (Colorectal) came out at 0.142 nM; with LIM1215 (Colorectal), 1.6 nM; with SW620 (Colorectal), 0.302 nM; in assay [1], 0.261 nM; with A431 (Skin) HIF+, 0.029 nM. In the assay on MS1 DNA fragment (R is preferably a G or C, X is any base), the “preferred binding site (sequence motif)” value is recorded as “XRXXRRXX”. The “DNA footprint / binding pattern on the MS1 DNA sequence” value in the assay on MS1 DNA fragment (overnight incubation of ligand-DNA complexes) is recorded as “only two preferred sites were observed”. Further, the “major transcription factors down-regulated” value in the assay with transcription factors was “HIF1 (hypoxia-inducible factor 1), NF-1 (Neurofibromatosis type 1), FOXG1 and NF-κB”.
